Measured values from ChEMBL document CHEMBL3632483, “Synthesis and pharmacological evaluation of piperidine (piperazine)-substituted benzoxazole derivatives as multi-target antipsychotics” (Bioorg Med Chem Lett, 2015).

Tests used:
D(2) dopamine receptor = D(2) dopamine receptor (Rattus norvegicus, UniProt P61169); experiment: Displacement of [3H]spiperone from dopaminergic D2 receptor in rat striatum homogenates after 60 mins by liquid scintillation counting
[1] = target: T1, 5-hydroxytryptamine receptor 1A (Rattus norvegicus, UniProt P19327); experiment: Displacement of [3H]8-OH-DPAT from 5-HT1A receptor in rat cerebral cortex homogenates after 60 mins by liquid scintillation counting; assay type: tissue-based
T1 sequence (P19327 whole entry): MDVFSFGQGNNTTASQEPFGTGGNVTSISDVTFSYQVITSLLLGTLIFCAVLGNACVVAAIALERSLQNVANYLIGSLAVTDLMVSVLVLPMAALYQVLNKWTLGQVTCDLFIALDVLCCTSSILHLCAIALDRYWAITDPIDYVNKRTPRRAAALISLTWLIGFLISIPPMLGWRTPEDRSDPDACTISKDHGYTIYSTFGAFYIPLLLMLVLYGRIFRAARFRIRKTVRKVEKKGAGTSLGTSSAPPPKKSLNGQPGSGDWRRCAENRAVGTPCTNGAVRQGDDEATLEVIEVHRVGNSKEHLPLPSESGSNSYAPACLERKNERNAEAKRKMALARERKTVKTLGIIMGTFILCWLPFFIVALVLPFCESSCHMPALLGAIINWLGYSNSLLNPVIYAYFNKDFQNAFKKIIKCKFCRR

[2] = target: 5-hydroxytryptamine receptor 2A (Rattus norvegicus, UniProt P14842); experiment: Displacement of [3H]ketanserine from 5-HT2A receptor in rat cerebral cortex homogenates after 60 mins by liquid scintillation counting; assay type: tissue-based
Mus musculus [3] = experiment: Neurotoxicity in Chinese Kun Ming mouse assessed as locomotor activity by measuring total distance traveled at 0.1 mg/kg, po administered 1 hr before test measured for 10 mins (reference value: 13415.6 +/- 9555.8 millimeter); assay type: toxicity, organism-based; conditions: in vivo
Mus musculus [4] = experiment: Neurotoxicity in Chinese Kun Ming mouse assessed as locomotor activity by measuring total distance traveled at 0.3 mg/kg, po administered 1 hr before test measured for 10 mins (reference value: 13415.6 +/- 9555.8 millimeter); assay type: toxicity, organism-based; conditions: in vivo
Mus musculus [5] = experiment: Neurotoxicity in Chinese Kun Ming mouse assessed as locomotor activity by measuring total distance traveled at 1 mg/kg, po administered 1 hr before test measured for 10 mins (reference value: 13415.6 +/- 9555.8 millimeter); assay type: toxicity, organism-based; conditions: in vivo
Mus musculus [6] = experiment: Antipsychotic activity in po dosed Chinese Kun Ming mouse assessed as inhibition of apomorphine-induced climbing administered 30 mins before apomorphine challenge measured up to 30 mins; assay type: functional
Mus musculus [7] = experiment: Antipsychotic activity in po dosed Chinese Kun Ming mouse assessed as inhibition of DOI-induced head twitch administered 60 mins before DOI challenge measured up to 15 mins; assay type: functional
Mus musculus [8] = experiment: Toxicity in po dosed Chinese Kun Ming mouse assessed as induction of catalepsy by measuring immobility score of 30 seconds administered 30 mins before first assessment; assay type: organism-based; conditions: in vivo, 0.5 h
Mus musculus [9] = experiment: Neurotoxicity in Chinese Kun Ming mouse assessed as locomotor activity by measuring total distance traveled at 1 mg/kg, po administered 1 hr before test measured for 10 mins (reference value: 13881.4 +/- 8595.8 millimeter); assay type: toxicity, organism-based; conditions: in vivo
Mus musculus [10] = experiment: Neurotoxicity in Chinese Kun Ming mouse assessed as locomotor activity by measuring total distance traveled at 3 mg/kg, po administered 1 hr before test measured for 10 mins (reference value: 13881.4 +/- 8595.8 millimeter); assay type: toxicity, organism-based; conditions: in vivo
Mus musculus [11] = experiment: Neurotoxicity in Chinese Kun Ming mouse assessed as locomotor activity by measuring total distance traveled at 10 mg/kg, po administered 1 hr before test measured for 10 mins (reference value: 13881.4 +/- 8595.8 millimeter); assay type: toxicity, organism-based; conditions: in vivo
[12] = target: Voltage-gated inwardly rectifying potassium channel KCNH2 (Homo sapiens, UniProt Q12809); experiment: Inhibition of human ERG expressed in HEK293 cells by whole-cell patch clamp method; assay type: cell-based
[13] = Acute toxicity in Sprague-Dawley rat; assay type: organism-based; conditions: in vivo

D(2) dopamine receptor, sequence (P61169 whole entry): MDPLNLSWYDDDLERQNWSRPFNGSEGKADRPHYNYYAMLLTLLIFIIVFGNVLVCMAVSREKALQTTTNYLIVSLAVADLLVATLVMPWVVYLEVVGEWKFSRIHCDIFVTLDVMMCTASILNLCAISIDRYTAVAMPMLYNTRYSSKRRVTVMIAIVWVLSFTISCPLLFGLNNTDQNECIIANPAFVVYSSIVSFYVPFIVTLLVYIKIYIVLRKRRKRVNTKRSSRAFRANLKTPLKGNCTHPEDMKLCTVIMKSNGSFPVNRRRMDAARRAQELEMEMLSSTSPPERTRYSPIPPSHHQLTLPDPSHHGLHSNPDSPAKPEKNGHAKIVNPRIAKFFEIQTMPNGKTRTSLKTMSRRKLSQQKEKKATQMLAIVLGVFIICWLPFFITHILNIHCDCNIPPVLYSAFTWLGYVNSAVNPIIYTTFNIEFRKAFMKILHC
5-hydroxytryptamine receptor 2A, sequence (P14842 whole entry): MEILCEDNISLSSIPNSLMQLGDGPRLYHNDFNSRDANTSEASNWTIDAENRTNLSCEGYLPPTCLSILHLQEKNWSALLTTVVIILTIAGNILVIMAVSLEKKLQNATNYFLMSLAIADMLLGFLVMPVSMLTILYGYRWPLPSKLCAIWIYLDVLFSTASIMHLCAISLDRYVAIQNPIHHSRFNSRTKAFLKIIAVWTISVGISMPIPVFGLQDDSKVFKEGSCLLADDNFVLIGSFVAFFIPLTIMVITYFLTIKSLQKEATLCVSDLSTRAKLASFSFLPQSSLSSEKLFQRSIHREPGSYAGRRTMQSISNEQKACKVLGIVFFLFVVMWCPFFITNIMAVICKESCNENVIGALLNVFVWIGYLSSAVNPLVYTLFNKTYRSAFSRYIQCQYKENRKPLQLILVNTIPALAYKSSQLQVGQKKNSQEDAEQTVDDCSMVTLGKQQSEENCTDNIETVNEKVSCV
Voltage-gated inwardly rectifying potassium channel KCNH2, sequence (Q12809 whole entry): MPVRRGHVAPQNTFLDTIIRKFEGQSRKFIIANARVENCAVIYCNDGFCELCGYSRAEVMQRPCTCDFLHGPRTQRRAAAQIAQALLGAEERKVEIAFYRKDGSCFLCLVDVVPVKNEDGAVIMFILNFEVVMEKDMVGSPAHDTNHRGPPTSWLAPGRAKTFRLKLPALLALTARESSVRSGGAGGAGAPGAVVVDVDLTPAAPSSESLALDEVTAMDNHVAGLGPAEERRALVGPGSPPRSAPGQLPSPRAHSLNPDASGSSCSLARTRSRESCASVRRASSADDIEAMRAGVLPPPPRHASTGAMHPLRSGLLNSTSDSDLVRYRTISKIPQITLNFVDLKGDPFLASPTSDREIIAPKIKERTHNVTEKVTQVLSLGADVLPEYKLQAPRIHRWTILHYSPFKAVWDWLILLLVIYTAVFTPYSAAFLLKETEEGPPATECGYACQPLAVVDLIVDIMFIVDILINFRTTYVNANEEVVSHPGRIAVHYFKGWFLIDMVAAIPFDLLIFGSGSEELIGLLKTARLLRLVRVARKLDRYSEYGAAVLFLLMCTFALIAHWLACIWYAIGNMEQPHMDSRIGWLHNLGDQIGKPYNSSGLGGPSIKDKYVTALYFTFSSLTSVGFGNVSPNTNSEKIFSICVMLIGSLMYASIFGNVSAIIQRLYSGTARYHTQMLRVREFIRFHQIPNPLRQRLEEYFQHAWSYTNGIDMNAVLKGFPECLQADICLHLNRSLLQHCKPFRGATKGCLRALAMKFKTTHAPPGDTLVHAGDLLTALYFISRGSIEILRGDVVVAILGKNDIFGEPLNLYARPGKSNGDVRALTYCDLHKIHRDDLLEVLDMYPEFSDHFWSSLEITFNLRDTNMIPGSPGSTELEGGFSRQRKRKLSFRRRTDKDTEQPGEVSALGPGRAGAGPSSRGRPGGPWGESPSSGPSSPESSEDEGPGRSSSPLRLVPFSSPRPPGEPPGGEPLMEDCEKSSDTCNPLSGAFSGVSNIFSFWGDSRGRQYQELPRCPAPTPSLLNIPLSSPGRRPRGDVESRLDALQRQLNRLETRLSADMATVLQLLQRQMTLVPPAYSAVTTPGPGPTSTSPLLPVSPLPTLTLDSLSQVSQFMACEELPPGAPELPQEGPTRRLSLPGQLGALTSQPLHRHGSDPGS

Row | SMILES | Ki (D(2) dopamine receptor) | Ki [1] | Ki [2] | also measured
1 | Cc1cccc(N2CCN(CCCOc3ccc(-c4nc5ccccc5o4)cc3)CC2)c1C | > 10000 nM | 4690 nM | 2140 nM | –
2 | c1ccc(N2CCN(CCCOc3ccc(-c4nc5ccccc5o4)cc3)CC2)nc1 | > 10000 nM | 1990 nM | 2340 nM | –
3 | c1cnc(N2CCN(CCCOc3ccc(-c4nc5ccccc5o4)cc3)CC2)nc1 | 198 nM | 56.2 nM | 38.5 nM | –
4 | O=C(CCCN1CCC(O)(c2ccc(Cl)cc2)CC1)c1ccc(F)cc1 [HALOPERIDOL] | – | – | – | Activity (Mus musculus [3]): 8980.9 mm; Activity (Mus musculus [4]): 3580.6 mm; Activity (Mus musculus [5]): 744.5 mm
5 | Fc1ccc2c(C3CCN(CCCOc4ccc(-c5nc6ccccc6s5)cc4)CC3)noc2c1 | > 10000 nM | 1760 nM | 1270 nM | –
6 | COc1ccccc1N1CCN(CCCOc2ccc(-c3nc4ccccc4[nH]3)cc2)CC1 | 16.3 nM | 258 nM | 109 nM | –
7 | CN1CCN(C2=Nc3cc(Cl)ccc3Nc3ccccc32)CC1 [CLOZAPINE] | – | – | – | ED50 (Mus musculus [6]): 3.51 mg/kg; ED50 (Mus musculus [7]): 4.92 mg/kg; ED50 (Mus musculus [8]): 50.5 mg/kg
8 | Fc1ccc2c(C3CCN(CCCCOc4ccc(-c5nc6ccccc6o5)cc4)CC3)noc2c1 | 2200 nM | 996 nM | 729 nM | –
9 | c1ccc(N2CCN(CCCOc3ccc(-c4nc5ccccc5o4)cc3)CC2)cc1 | > 10000 nM | > 10000 nM | 4680 nM | –
10 | Clc1cccc(N2CCN(CCCOc3ccc(-c4nc5ccccc5o4)cc3)CC2)c1Cl | > 10000 nM | > 10000 nM | 2890 nM | –
11 | c1ccc2oc(-c3ccc(OCCCN4CCC(c5nc6ccccc6s5)CC4)cc3)nc2c1 | > 10000 nM | 146 nM | 281 nM | –
12 | O=C1CN=C(c2ccccc2Cl)c2cc([N+](=O)[O-])ccc2N1 [CLONAZEPAM] | – | – | – | Activity (Mus musculus [9]): 13188.4 mm; Activity (Mus musculus [10]): 4784.1 mm; Activity (Mus musculus [11]): 655.7 mm
13 | Cc1nc2n(c(=O)c1CCN1CCC(c3noc4cc(F)ccc34)CC1)CCCC2 [RISPERIDONE] | – | – | – | ED50 (Mus musculus [6]): 0.034 mg/kg; ED50 (Mus musculus [7]): 0.045 mg/kg; ED50 (Mus musculus [8]): 1.3 mg/kg
14 | COc1ccccc1N1CCN(CCCOc2ccc(-c3nc4ccccc4o3)cc2)CC1 | 467 nM | 46.8 nM | 29.3 nM | –
15 | CC(c1ccc(OCCCN2CCC(c3noc4cc(F)ccc34)CC2)cc1)c1nc2ccccc2o1 (stereo unspecified) | 60.3 nM | 89.6 nM | 30.5 nM | IC50 [12]: 1010 nM; LD50 [13]: 614 mg/kg
16 | O=C(c1ccc(F)cc1F)C1CCN(CCCOc2ccc(-c3nc4ccccc4o3)cc2)CC1 | 408 nM | 114 nM | 199 nM | LD50 [13]: 369 mg/kg
17 | COc1cc(OCCCN2CCC(c3noc4cc(F)ccc34)CC2)ccc1-c1nc2ccccc2o1 | 1190 nM | 1560 nM | 72.2 nM | –
18 | c1ccc2oc(-c3ccc(OCCCN4CCN(c5nsc6ccccc56)CC4)cc3)nc2c1 | 879 nM | 970 nM | 16.9 nM | –
19 | c1ccc2oc(-c3ccc(OCCCN4CCC(c5nc6ccccc6o5)CC4)cc3)nc2c1 | > 10000 nM | 568 nM | 243 nM | –
20 | Cc1ccc2oc(-c3ccc(OCCCN4CCC(c5noc6cc(F)ccc56)CC4)cc3)nc2c1 | > 10000 nM | 76.3 nM | > 10000 nM | –
21 | c1ccc2c(c1)OCC(CN1CCN(CCCOc3ccc(-c4nc5ccccc5o4)cc3)CC1)O2 (stereo unspecified) | > 10000 nM | > 10000 nM | 1420 nM | –
22 | Fc1ccc2c(C3CCN(CCCOc4ccc(-c5nc6cc(Cl)ccc6o5)cc4)CC3)noc2c1 | 660 nM | > 10000 nM | 135 nM | –
23 | Fc1ccc2c(C3CCN(CCCOc4ccc(CCc5nc6ccccc6o5)cc4)CC3)noc2c1 | 53.1 nM | 31.1 nM | 38.1 nM | IC50 [12]: 630 nM; LD50 [13]: 398 mg/kg
24 | Fc1ccc2c(C3CCN(CCCOc4cccc(-c5nc6ccccc6o5)c4)CC3)noc2c1 | > 10000 nM | > 10000 nM | > 10000 nM | –
25 | Cc1cc(-c2nc3ccccc3o2)ccc1OCCCN1CCC(c2noc3cc(F)ccc23)CC1 | 1590 nM | 2140 nM | 41.1 nM | –
26 | Fc1ccc2c(C3CCN(CCCOc4ccc(-c5nc6ccccc6o5)c(F)c4)CC3)noc2c1 | 143 nM | 232 nM | 23.7 nM | –
27 | FC(F)(F)c1cccc(N2CCN(CCCOc3ccc(-c4nc5ccccc5o4)cc3)CC2)c1 | > 10000 nM | > 10000 nM | 4480 nM | –
